This note sets out measurements from paper PMC11233931, “Remodeling tumor‐associated macrophage for anti‐cancer effects by rational design of irreversible inhibition of mitogen‐activated protein kinase‐activated protein kinase 2” (MedComm, 2024).

What all share (test): Eurofins kinase selectivity profile against 380 other human recombinant kinases (Table S2)
Type in all cases: biochemical

Test [1] deals with T1, 380 human recombinant protein kinases (Homo sapiens, UniProt O60674).
T1 construct: purchased Eurofins (Celle Lévescault)
T1 sequence (O60674 whole entry): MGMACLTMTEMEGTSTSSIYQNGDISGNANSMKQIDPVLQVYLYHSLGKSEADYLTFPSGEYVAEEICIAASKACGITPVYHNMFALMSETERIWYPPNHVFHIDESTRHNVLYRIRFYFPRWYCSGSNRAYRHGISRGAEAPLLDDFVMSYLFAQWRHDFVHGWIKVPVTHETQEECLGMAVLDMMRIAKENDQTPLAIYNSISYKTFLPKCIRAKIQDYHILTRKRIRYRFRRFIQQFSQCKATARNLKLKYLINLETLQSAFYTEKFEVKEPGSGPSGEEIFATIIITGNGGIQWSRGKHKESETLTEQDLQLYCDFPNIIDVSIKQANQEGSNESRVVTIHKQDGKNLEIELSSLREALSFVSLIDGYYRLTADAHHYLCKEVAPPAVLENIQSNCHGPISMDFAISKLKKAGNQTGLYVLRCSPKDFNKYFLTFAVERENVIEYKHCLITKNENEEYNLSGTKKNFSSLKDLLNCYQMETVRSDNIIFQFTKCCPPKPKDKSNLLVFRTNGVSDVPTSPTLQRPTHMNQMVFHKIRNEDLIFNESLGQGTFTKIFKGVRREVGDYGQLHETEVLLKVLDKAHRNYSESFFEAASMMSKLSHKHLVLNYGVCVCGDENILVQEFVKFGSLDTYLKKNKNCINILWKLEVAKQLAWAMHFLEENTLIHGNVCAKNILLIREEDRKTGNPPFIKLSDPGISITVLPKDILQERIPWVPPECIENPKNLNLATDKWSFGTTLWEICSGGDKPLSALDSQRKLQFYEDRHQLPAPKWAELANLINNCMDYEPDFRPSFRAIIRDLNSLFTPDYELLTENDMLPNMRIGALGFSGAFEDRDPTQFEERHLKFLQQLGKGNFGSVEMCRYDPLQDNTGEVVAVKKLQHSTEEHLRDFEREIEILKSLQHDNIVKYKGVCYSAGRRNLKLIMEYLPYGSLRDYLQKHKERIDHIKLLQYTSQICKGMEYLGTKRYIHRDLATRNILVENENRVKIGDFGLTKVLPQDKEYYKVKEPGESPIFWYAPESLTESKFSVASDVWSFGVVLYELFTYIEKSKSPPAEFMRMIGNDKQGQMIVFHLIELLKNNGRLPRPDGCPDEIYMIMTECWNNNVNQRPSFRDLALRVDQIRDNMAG
Particulars: JAK2(h), read-out: Inhibition rate. The method in brief: (§1)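 To gauge specificity for MK2, the compound is profiled externally at various concentrations on recombinant human kinases, 380 in total.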

The target of test [2] is T2, 380 human recombinant protein kinases (Homo sapiens, UniProt O75460).
T2 construct: purchased Eurofins (Celle Lévescault)
T2 sequence (O75460 19-977): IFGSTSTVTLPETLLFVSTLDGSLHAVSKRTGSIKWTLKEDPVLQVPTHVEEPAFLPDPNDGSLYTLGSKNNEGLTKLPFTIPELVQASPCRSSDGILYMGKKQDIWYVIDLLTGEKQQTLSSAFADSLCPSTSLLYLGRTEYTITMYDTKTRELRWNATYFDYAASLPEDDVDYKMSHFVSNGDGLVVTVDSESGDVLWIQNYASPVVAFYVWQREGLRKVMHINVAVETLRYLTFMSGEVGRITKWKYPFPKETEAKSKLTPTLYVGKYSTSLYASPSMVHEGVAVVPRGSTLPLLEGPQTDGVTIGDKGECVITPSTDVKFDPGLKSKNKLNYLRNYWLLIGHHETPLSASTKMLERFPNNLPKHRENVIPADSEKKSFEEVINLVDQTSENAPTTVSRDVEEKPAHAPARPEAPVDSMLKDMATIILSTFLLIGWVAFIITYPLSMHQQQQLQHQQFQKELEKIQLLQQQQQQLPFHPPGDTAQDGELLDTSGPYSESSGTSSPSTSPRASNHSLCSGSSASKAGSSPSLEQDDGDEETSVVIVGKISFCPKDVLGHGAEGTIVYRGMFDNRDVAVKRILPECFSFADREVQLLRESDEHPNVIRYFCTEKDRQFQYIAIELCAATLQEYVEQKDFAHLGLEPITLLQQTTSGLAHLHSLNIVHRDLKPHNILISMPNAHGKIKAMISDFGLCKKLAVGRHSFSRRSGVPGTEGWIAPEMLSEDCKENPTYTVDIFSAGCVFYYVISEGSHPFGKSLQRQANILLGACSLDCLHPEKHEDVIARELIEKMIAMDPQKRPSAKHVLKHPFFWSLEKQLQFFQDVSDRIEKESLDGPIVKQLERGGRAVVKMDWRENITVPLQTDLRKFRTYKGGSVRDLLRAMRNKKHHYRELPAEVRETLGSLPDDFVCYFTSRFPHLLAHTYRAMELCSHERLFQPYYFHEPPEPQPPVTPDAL
Conditions: IRE1(h), read-out: Inhibition rate. The method in brief: as §1

The target of test [3] is T3, 380 human recombinant protein kinases (Homo sapiens, UniProt P07948).
T3 construct: purchased Eurofins (Celle Lévescault)
T3 sequence (P07948 whole entry): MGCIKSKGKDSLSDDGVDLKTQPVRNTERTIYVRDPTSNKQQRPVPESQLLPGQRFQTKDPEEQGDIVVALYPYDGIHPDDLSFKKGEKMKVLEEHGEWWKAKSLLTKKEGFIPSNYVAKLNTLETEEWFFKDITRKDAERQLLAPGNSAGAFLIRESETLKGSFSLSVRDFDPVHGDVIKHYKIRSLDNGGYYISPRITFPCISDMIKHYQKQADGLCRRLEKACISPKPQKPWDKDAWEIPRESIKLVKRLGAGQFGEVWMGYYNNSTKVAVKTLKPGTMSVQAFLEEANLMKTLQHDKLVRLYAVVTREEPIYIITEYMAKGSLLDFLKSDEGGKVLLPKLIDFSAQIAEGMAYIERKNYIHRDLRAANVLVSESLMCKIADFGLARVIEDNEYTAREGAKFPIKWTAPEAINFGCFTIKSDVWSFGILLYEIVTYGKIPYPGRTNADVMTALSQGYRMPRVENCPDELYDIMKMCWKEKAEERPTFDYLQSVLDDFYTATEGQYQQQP
Particulars: Lyn(h), read-out: Inhibition rate. An outline of the steps:
as §1

In test [4] the target is T4, 380 human recombinant protein kinases (Homo sapiens, UniProt P42680).
T4 construct: purchased Eurofins (Celle Lévescault)
T4 sequence (P42680 1-631): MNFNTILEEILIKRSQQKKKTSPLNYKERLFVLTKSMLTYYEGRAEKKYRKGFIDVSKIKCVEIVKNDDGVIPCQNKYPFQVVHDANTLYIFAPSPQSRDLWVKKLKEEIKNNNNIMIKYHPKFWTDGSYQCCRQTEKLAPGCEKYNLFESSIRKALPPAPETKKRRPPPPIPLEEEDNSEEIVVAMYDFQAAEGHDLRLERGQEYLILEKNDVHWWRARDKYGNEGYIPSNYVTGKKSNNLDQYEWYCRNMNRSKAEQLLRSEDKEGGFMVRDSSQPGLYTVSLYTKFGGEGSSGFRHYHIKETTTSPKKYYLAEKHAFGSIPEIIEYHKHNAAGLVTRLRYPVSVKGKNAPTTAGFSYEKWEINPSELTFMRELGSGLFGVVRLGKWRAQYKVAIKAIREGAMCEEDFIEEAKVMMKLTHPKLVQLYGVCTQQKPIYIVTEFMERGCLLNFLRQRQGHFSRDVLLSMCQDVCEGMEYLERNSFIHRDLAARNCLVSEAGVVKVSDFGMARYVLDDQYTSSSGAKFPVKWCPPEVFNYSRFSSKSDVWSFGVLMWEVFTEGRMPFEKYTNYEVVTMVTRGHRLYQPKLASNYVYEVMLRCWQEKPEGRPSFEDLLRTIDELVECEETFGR
Conditions: Tec(h) activated, read-out: Inhibition rate (%). The method in brief: as §1

Test [5] concerns the target T5, 380 human recombinant protein kinases (Homo sapiens, UniProt Q04759).
T5 construct: purchased Eurofins (Celle Lévescault)
Conditions: PKCθ(h), read-out: Inhibition rate. The method in brief:
as §1

Test [6] concerns the target T6, 380 human recombinant protein kinases (Homo sapiens, UniProt Q13627).
T6 construct: purchased Eurofins (Celle Lévescault)
Conditions: DYRK1A(h), read-out: Inhibition rate. An outline of the steps: as §1

In test [7] the target is T7, 380 human recombinant protein kinases (Homo sapiens, UniProt Q8WTQ7).
T7 construct: purchased Eurofins (Celle Lévescault)
T7 sequence (Q8WTQ7 1-553): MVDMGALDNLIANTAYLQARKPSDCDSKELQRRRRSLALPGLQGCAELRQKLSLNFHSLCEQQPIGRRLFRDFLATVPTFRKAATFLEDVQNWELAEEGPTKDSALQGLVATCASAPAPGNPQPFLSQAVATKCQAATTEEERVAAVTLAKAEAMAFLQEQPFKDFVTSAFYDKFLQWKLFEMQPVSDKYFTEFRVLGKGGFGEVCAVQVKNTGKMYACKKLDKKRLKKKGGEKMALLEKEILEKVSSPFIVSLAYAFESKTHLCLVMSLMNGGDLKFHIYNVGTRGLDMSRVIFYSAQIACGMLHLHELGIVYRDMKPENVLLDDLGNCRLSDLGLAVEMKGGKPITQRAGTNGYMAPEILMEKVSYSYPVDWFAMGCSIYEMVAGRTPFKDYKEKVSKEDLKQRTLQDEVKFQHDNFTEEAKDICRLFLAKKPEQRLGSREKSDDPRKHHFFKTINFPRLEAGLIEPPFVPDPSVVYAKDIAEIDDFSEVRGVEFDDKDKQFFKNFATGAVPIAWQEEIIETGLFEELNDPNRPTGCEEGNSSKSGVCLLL
Particulars: GRK7(h), read-out: Inhibition rate. The method in brief: as §1

Test [8] deals with T8, 380 human recombinant protein kinases (Homo sapiens, UniProt Q9H093).
T8 construct: purchased Eurofins (Celle Lévescault)
T8 sequence (Q9H093 1-628): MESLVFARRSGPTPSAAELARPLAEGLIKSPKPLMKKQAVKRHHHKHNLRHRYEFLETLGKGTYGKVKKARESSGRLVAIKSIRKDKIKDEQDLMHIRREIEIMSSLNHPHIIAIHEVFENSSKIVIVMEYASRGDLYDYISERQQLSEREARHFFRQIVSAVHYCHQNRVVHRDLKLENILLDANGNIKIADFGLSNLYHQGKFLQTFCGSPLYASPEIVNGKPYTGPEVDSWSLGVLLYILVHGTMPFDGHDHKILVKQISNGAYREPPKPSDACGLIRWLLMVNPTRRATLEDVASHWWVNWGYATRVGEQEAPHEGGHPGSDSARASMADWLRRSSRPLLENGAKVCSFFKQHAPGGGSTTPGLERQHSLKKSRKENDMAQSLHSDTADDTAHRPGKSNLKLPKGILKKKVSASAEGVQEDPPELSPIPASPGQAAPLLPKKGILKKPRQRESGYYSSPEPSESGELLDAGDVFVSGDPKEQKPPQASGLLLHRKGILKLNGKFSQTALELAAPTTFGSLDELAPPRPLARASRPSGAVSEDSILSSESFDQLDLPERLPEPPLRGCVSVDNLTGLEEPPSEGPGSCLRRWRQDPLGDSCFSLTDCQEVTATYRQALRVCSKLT
Particulars: NUAK2(h), read-out: Inhibition rate. An outline of the steps:
as §1

T5 sequence (Q04759 whole entry): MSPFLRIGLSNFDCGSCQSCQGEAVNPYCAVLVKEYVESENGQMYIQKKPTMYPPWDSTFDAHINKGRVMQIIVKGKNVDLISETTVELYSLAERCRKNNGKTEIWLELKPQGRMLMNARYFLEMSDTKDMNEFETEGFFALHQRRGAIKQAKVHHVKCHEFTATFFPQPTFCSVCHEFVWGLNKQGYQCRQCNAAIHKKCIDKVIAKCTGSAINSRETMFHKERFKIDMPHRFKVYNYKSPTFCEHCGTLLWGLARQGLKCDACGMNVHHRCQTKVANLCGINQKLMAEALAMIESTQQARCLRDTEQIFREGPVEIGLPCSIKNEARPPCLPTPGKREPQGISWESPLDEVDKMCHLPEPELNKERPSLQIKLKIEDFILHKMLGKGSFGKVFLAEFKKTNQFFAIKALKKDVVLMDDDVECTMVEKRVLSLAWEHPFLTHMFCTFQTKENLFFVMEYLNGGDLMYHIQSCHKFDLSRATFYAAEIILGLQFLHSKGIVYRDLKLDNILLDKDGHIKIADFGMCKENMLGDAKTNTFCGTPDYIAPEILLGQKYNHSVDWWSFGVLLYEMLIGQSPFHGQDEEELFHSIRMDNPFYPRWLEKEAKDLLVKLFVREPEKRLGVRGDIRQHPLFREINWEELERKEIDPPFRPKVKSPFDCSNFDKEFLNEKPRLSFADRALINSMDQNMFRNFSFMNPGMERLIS

As to `C=CC(=O)Nc1cc(-c2cc(-c3cc4c([nH]3)CCNC4=O)ccn2)ccc1OC(F)(F)F` [compound 11], the inhibition (usually the relative decrease from the control value, in per cent) at 0.01 µM is -6% in test [1] (10 nM); 0% in test [2] (10 nM); -1% in test [3] (10 nM); 8% in test [4] (10 nM); 6% in test [5] (10 nM); 20% in test [6] (10 nM). In addition, the inhibition at 0.01 µM in test [7] (10 nM) was -4%; in test [8] (10 nM), -16%. The inhibition at 0.1 µM in test [1] (100 nM) was -10%; in test [2] (100 nM), -2%; in test [3] (100 nM) it was -11%; in test [4] (100 nM) it was 11%; in test [5] (100 nM) it was 0%; in test [6] (100 nM) it was 76%. Besides, the inhibition at 0.1 µM is -6% in test [7] (100 nM) and -8% in test [8] (100 nM). The inhibition at 1 µM in test [1] (1000 nM) is -8%; in test [2] (1000 nM) it was 0%; in test [3] (1000 nM) it was -11%; in test [4] (1000 nM) it was 17%; in test [5] (1000 nM) it was 4%; in test [6] (1000 nM), 96%. Moreover, the inhibition at 1 µM in test [7] (1000 nM) was found to be 2%; in test [8] (1000 nM), 8%.
